According to ChEMBL document CHEMBL4251622, “Design, synthesis, and biological evaluation of polo-like kinase 1/eukaryotic elongation factor 2 kinase (PLK1/EEF2K) dual inhibitors for regulating breast cancer cells apoptosis and autophagy” (Eur J Med Chem, 2018):
The source made the active and inactive calls. No cut-off for these calls is given here.

What was measured:
BT-483 [1] = test: Induction of apoptosis in human BT-483 cells assessed as apoptotic nuclear fragment formation at 5 uM after 24 hrs by fluorescence microscopic method; format: functional, cell-based
BT-483 [2] = test: Induction of apoptosis in human BT-483 cells assessed as late apoptotic cells at 10 uM by Annexin V-FITC/propidium iodide staining based flow cytometry (reference value: 0.36%); format: functional
BT-483 [3] = test: Downregulation of Bcl2 protein expression in human BT-483 cells at 5 to 10 uM by Western blot analysis; format: functional, cell-based
BT-483 [4] = test: Upregulation of cleaved caspase-3 protein expression in human BT-483 cells at 5 to 10 uM by Western blot analysis; format: functional, cell-based
BT-483 [5] = test: Effect on caspase-8 protein expression in human BT-483 cells at 5 to 10 uM by Western blot analysis; format: functional, cell-based
[6] = tested on: Tyrosine-protein kinase ABL1 (Homo sapiens), P00519 [E255K]; test: Inhibition of human phosphorylated ABL1 E255K mutant (S229 to K512 residues) expressed in mammalian expression system assessed as residual activity at 1 uM by Kinomescan method relative to control
[7] = target: Activin receptor type-1B (Homo sapiens) (UniProt P36896); test: Inhibition of wild-type human ACVR1B (S187 to I505 residues) expressed in bacterial expression system assessed as residual activity at 1 uM by Kinomescan method relative to control
[8] = target: Atypical kinase COQ8A, mitochondrial (Homo sapiens) (UniProt Q8NI60); test: Inhibition of wild-type human […] ADCK3 (M280 to Q647 residues) expressed in bacterial expression system assessed as residual activity at 1 uM by Kinomescan method relative to control
[9] = target: Cyclin-dependent kinase 9 (Homo sapiens) (UniProt P50750); test: Inhibition of wild-type human full length CDK9 (M1 to F372 residues) expressed in bacterial expression system assessed as residual activity at 1 uM by Kinomescan method relative to control
[10] = target: Epidermal growth factor receptor (Homo sapiens) (UniProt P00533); test: Inhibition of wild-type human partial length EGFR (R669 to V1011 residues) expressed in bacterial expression system assessed as residual activity at 1 uM by Kinomescan method relative to control
[11] = target: Fibroblast growth factor receptor 1 (Homo sapiens) (UniProt P11362); test: Inhibition of wild-type human partial length FGFR1 (P357 to V669 residues) expressed in bacterial expression system assessed as residual activity at 1 uM by Kinomescan method relative to control
[12] = target: Inhibitor of nuclear factor kappa-B kinase subunit alpha (Homo sapiens) (UniProt O15111); test: Inhibition of wild-type human full length IKK-alpha (M1 to E745 residues) expressed in mammalian expression system assessed as residual activity at 1 uM by Kinomescan method relative to control
[13] = target: Inhibitor of nuclear factor kappa-B kinase subunit beta (Homo sapiens) (UniProt O14920); test: Inhibition of wild-type human full length IKK-beta (M1 to S756 residues) expressed in mammalian expression system assessed as residual activity at 1 uM by Kinomescan method relative to control
[14] = target: Tyrosine-protein kinase JAK2 (Homo sapiens) (UniProt O60674); test: Inhibition of wild-type human partial length JAK2 JH1 catalytic domain (A829 to G1132 residues) expressed in mammalian expression system assessed as residual activity at 1 uM by Kinomescan method relative to control
[15] = target: Mitogen-activated protein kinase 10 (Homo sapiens) (UniProt P53779); test: Inhibition of wild-type human partial length JNK3 (V28 to Q422 residues) expressed in mammalian expression system assessed as residual activity at 1 uM by Kinomescan method relative to control
[16] = tested on: Mast/stem cell growth factor receptor Kit (Homo sapiens), P10721 [V559D,T670I]; test: Inhibition of human partial length KIT V559D/T670I double mutant (Y545 to D952 residues) expressed in bacterial expression system assessed as residual activity at 1 uM by Kinomescan method relative to control
[17] = target: Serine/threonine-protein kinase STK11 (Homo sapiens) (UniProt Q15831); test: Inhibition of wild-type human full length LKB1 (M1 to Q433 residues) expressed in bacterial expression system assessed as residual activity at 1 uM by Kinomescan method relative to control
[18] = target: Dual specificity mitogen-activated protein kinase kinase 1 (Homo sapiens) (UniProt Q02750); test: Inhibition of wild-type human full length MEK1 (M1 to V393 residues) expressed in mammalian expression system assessed as residual activity at 1 uM by Kinomescan method relative to control
[19] = target: Hepatocyte growth factor receptor (Homo sapiens) (UniProt P08581); test: Inhibition of wild-type human partial length MET (D1010 to S1367 residues) expressed in bacterial expression system assessed as residual activity at 1 uM by Kinomescan method relative to control
[20] = target: MAP kinase-interacting serine/threonine-protein kinase 1 (Homo sapiens) (UniProt Q9BUB5); test: Inhibition of wild-type human full length MKNK1 (M1 to L424 residues) expressed in mammalian expression system assessed as residual activity at 1 uM by Kinomescan method relative to control
[21] = target: Serine/threonine-protein kinase Nek1 (Homo sapiens) (UniProt Q96PY6); test: Inhibition of wild-type human partial length NEK1 (M1 to K278 residues) expressed in bacterial expression system assessed as residual activity at 1 uM by Kinomescan method relative to control
[22] = target: Phosphatidylinositol 4-phosphate 3-kinase C2 domain-containing subunit beta (Homo sapiens) (UniProt O00750); test: Inhibition of wild-type human partial length PIK3C2B (M1 to L1634 residues) expressed in mammalian expression system assessed as residual activity at 1 uM by Kinomescan method relative to control
[23] = target: Serine/threonine-protein kinase RIO2 (Homo sapiens) (UniProt Q9BVS4); test: Inhibition of wild-type human partial length RIOK2 (M1 to D313 residues) expressed in mammalian expression system assessed as residual activity at 1 uM by Kinomescan method relative to control
[24] = target: Rho-associated protein kinase 1 (Homo sapiens) (UniProt Q13464); test: Inhibition of wild-type human partial length ROCK1 (M1 to R415 residues) expressed in mammalian expression system assessed as residual activity at 1 uM by Kinomescan method relative to control
[25] = target: Angiopoietin-1 receptor (Homo sapiens) (UniProt Q02763); test: Inhibition of wild-type human partial length TIE2 (N804 to T1112 residues) expressed in bacterial expression system assessed as residual activity at 1 uM by Kinomescan method relative to control
[26] = target: Non-receptor tyrosine-protein kinase TYK2 (Homo sapiens) (UniProt P29597); test: Inhibition of wild-type human partial length TYK2 JH1 catalytic domain (V877 to C1187 residues) expressed in mammalian expression system assessed as residual activity at 1 uM by Kinomescan method relative to control
[27] = target: Serine/threonine-protein kinase ULK1 (Homo sapiens) (UniProt O75385); test: Inhibition of wild-type human partial length ULK1 (M1 to T309 residues) expressed in mammalian expression system assessed as residual activity at 1 uM by Kinomescan method relative to control
Chain of Serine/threonine-protein kinase ULK1 (Homo sapiens) (O75385 whole entry, the tested form may be a part): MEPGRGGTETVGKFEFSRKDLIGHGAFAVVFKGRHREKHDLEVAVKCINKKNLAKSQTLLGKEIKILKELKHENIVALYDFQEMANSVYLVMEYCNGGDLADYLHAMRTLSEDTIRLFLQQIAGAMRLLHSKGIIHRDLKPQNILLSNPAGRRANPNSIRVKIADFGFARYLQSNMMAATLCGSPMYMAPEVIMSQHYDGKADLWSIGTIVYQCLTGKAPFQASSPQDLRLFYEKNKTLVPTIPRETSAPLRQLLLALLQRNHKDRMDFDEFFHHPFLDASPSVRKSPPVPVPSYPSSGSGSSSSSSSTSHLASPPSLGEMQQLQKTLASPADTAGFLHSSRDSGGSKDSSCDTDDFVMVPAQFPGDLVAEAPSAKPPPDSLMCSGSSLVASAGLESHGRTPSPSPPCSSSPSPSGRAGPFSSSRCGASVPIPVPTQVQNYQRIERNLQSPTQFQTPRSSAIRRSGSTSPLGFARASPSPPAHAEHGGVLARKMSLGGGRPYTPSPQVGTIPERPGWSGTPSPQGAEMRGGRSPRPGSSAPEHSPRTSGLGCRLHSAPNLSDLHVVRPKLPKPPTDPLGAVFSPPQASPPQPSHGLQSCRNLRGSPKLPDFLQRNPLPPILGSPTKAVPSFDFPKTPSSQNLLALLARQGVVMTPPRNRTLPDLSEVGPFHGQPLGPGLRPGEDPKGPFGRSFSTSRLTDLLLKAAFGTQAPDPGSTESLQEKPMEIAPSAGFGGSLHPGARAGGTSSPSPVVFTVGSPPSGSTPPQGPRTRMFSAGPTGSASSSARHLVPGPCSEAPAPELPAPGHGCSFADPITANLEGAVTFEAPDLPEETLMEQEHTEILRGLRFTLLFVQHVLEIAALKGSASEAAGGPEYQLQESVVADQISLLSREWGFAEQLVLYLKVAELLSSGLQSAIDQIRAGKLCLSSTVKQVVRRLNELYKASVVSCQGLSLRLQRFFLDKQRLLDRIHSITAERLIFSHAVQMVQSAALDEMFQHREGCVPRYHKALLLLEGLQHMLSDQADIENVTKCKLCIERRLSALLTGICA

Chain of Rho-associated protein kinase 1 (Homo sapiens) (Q13464 2-1354 limits assumed): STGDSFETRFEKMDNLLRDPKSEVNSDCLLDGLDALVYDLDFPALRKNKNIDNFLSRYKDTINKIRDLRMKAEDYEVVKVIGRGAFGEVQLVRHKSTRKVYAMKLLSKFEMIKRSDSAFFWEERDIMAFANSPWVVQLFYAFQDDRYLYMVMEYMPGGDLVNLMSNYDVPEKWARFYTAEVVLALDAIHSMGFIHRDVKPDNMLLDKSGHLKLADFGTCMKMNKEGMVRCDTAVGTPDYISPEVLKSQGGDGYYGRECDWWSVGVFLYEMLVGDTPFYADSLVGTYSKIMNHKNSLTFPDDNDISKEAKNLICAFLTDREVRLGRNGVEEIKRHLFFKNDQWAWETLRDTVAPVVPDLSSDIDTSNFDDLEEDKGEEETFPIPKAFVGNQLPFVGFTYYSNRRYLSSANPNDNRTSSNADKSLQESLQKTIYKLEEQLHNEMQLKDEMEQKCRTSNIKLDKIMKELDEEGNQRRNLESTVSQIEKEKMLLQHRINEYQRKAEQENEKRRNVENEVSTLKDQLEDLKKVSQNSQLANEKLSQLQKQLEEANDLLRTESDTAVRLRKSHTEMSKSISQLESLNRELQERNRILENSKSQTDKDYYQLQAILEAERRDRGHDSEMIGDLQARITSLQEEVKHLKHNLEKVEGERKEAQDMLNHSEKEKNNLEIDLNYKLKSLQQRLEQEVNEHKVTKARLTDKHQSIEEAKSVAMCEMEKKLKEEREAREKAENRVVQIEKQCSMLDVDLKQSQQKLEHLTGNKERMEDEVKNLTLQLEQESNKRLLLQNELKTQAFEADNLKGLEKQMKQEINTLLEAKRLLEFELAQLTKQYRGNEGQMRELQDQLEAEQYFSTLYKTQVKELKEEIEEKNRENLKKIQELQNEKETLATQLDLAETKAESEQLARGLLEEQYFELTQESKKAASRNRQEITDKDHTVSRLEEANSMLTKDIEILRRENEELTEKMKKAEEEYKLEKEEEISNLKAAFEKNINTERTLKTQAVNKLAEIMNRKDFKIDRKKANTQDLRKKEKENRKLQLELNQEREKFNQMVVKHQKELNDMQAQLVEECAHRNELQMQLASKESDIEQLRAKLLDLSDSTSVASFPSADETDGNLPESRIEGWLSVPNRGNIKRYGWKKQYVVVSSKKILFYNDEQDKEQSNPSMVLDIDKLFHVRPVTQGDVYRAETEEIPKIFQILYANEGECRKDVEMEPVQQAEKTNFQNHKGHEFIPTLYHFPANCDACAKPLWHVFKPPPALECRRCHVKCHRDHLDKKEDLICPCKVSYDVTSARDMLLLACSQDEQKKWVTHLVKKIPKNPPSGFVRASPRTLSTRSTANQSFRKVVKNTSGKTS
Chain of Angiopoietin-1 receptor (Homo sapiens) (Q02763 whole entry, the tested form may be a part): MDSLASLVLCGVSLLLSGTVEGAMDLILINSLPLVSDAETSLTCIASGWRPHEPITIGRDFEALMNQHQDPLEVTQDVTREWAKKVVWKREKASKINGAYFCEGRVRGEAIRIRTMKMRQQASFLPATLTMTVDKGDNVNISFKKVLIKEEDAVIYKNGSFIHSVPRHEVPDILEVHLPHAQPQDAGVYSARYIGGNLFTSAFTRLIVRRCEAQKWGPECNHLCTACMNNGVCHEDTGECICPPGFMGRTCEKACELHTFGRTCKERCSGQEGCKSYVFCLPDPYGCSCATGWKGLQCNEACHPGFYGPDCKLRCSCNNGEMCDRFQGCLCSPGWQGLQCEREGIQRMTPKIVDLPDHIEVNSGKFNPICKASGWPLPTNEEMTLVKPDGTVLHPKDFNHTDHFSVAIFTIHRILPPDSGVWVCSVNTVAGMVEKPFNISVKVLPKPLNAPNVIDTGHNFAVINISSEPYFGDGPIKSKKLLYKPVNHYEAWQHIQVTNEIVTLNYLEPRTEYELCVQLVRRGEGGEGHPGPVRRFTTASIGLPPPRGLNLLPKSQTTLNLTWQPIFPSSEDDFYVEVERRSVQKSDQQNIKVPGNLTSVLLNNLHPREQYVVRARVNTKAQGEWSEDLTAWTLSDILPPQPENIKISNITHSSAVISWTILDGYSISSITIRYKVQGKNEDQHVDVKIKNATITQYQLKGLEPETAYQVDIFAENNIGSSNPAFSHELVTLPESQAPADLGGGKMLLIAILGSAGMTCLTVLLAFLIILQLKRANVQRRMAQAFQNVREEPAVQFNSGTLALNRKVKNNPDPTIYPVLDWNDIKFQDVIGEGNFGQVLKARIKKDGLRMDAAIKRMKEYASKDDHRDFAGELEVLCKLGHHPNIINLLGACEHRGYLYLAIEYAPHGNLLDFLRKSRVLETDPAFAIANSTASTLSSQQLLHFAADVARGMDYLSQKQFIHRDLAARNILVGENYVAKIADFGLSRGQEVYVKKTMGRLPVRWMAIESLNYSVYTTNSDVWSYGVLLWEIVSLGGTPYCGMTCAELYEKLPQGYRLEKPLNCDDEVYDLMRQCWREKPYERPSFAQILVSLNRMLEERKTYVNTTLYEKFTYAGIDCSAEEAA
Chain of Dual specificity mitogen-activated protein kinase kinase 1 (Homo sapiens) (Q02750 whole entry, the tested form may be a part): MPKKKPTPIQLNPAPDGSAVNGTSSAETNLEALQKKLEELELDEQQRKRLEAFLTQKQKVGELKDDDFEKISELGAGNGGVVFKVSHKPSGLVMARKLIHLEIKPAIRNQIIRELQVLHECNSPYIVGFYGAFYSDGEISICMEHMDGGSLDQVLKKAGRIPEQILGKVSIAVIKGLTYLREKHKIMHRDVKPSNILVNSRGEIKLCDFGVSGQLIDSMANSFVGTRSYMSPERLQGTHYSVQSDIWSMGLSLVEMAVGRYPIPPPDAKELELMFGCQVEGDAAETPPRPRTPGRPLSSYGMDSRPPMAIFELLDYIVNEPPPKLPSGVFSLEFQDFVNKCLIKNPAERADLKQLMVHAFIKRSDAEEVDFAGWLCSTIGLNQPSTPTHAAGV
Chain of Tyrosine-protein kinase JAK2 (Homo sapiens) (O60674 whole entry, the tested form may be a part): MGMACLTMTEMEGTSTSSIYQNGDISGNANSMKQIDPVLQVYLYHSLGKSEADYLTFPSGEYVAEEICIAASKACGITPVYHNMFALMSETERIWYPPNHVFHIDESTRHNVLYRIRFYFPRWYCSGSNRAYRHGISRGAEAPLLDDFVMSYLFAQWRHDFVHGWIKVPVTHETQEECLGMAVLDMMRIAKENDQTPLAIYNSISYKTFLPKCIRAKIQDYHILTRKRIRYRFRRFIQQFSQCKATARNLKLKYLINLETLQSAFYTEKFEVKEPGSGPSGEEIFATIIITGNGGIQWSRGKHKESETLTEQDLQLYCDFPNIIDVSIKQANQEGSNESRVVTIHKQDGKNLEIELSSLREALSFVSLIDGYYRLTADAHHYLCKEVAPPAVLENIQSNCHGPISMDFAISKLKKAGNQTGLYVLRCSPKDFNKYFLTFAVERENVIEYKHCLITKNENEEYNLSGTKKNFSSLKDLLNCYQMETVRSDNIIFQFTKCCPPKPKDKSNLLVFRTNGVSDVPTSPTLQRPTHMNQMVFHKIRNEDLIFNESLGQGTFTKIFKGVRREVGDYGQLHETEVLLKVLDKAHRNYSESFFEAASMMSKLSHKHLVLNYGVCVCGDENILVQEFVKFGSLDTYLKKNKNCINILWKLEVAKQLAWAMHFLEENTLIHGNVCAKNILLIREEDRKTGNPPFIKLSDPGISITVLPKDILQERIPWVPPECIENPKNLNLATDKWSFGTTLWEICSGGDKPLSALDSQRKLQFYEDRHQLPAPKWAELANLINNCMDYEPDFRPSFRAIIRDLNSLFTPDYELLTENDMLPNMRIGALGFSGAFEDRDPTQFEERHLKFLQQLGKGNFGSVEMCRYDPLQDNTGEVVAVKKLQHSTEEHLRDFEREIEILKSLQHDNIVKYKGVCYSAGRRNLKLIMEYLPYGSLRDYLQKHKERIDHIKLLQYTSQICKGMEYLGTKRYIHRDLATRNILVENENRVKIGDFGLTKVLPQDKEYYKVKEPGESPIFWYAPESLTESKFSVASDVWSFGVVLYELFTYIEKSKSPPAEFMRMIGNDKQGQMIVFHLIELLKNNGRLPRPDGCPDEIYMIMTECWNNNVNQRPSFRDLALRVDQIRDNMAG

CCNc1cc(-c2ccc(NC(=O)Nc3cccc(Cl)c3)cc2C(F)(F)F)ccn1
Activity (BT-483 [1]): Active | Activity (BT-483 [2]): 12% | Activity (BT-483 [3]): Active | Activity (BT-483 [4]): Active | Activity (BT-483 [5]): inactive | Activity [6]: 82% | Activity [7]: 85% | Activity [8]: 94% | Activity [9]: 91% | Activity [10]: 90% | Activity [11]: 91% | Activity [12]: 95% | Activity [13]: 92% | Activity [14]: 86% | Activity [15]: 64% | Activity [16]: 93% | Activity [17]: 75% | Activity [18]: 96% | Activity [19]: 73% | Activity [20]: 81% | Activity [21]: 60% | Activity [22]: 97% | Activity [23]: 67% | Activity [24]: 70% | Activity [25]: 94% | Activity [26]: 65% | Activity [27]: 62%
